According to EP2718307B1, “BETA-HAIRPIN PEPTIDOMIMETICS AS CXC4 ANTAGONISTS” (Polyphor AG, priority 2011, dated 2012):
Like-named read-outs stand apart in the source and are kept apart here. Bridge positions count the residues as written; N and C are the ends. Square brackets hold non-standard residues; d marks the D form. Peptide text beside a SMILES is read from it. Lys(iPr) = CC(C)NCCCC[C@H](N)C(=O)O; Orn(iPr) = CC(C)NCCC[C@H](N)C(=O)O

Experiments:
[1] = Plasma stability, human plasma; type: in vitro ADME
Description: The stability of the peptides in human and mouse plasma was determined by applying the following method: 346.5 µL/deep well of freshly thawed human plasma (Basler Blutspende-dienst) and mouse plasma (Harlan Sera-Lab, UK), respectively, were spiked with 3.5 µL/well of compound dissolved in DMSO/H2O (90/10 [v/v], 1 mM, triplicate) and incubated at 37° C. At t = 0, 15, 30, 60, 120, 240 and 1440 min aliquots of 50 µL were transferred to filtration plate wells containing 150 µL/well of 2% formic acid in acetonitrile. Following shaking for 2 min the occurred suspensions were filtrated by vacuum. 100 µL of each filtrate were transferred to a propylene microtiter plate and dried under N2. The residual solids were reconstituted by adding 100 µL/well of water/acetonitrile, 95/5 (v/v) + 0.2% formic acid and analyzed by LC/MS as follows: Column: Waters, XBridge C18, mobile phases: (A) water + 0.1% formic acid and (B) acetonitrile/water, 95/5 (v/v) + 0.1% formic acid, gradient: 5%-100% (B) in 1.8 minutes, electrospray ionization, MRM detection (triple quadrupole). The peak areas were determined and triplicate values are averaged. The stability is expressed in percent of the initial value at t = 0. (tx/t0 x 100). By using the TREND function of EXCEL (Microsoft Office 2003) T1/2 were determined.

[2] = Pharmacokinetic study (PK) after intravenous administration; type: in vivo, male CD-1 mice; settings: 1 mg/kg; for AUC0-∞ / CL / Cmax / Half-life / Vdis: mouse, in vivo
Description: For the compounds of Ex. 1, Ex.2, Ex. 3, Ex. 4, Ex. 5 and Ex. 6 pharmacokinetic studies after intravenous (i.v.) administration were performed.
30 grams (± 20%) male CD-1 mice obtained from Charles River Laboratories Deutschland GmbH were used. The vehicle, phosphate buffered saline, was added to give a final concentration of 0.5 mg/mL of the compound. The volume was 2 mL/kg and the compound was injected to give a final intravenous dose of 1 mg/kg. Approximately 300-400 µL of blood was removed under light isoflurane anesthesia by cardiac puncture at predetermined time intervals (5, 15, 30 min and 1, 2, 3, 4, hours) and added to heparinized tubes. Plasma was removed from pelleted cells upon centrifugation and frozen at -80 °C prior to HPLC-MS analysis.
Aliquots of 50 µL each of mouse plasma of untreated aminals ("blank" mouse plasma) were spiked with known amounts of the compounds Ex. 1, Ex.2, Ex. 3, Ex. 4, Ex. 5 and Ex. 6 in order to obtain 10 plasma calibration samples for each compound in the range 1 - 4000 ng/mL. Aliquots of 50 µL each of mouse plasma from treated animals were used as plasma study samples.
All plasma samples were spiked with an appropriate internal standard and extracted with acetonitrile containing 2% formic acid. Supernatants were evaporated to dryness under nitrogen and the remaining solids reconstituted in water/acetonitrile 95/5 (v/v) + 0.2% formic acid.
Extracts were then analyzed by reverse-phase chromatography (Acquity BEH C18, 100 x 2.1 mm, 1.7 µm column, Waters for Ex. 1 and Acquity HSS C18 SB, 100 x 2.1 mm, 1.8 µm column, Waters for Ex. 2, Ex. 3, Ex. 4, Ex. 5 and Ex. 6), using the following conditions: Ex. 1, mobile phases: (A) water/acetonitrile 95/5 (v/v) + 0.1% formic acid, (B) acetonitrile/water 95/5 (v/v) + 0.1% formic acid, gradient: 1% (B) 0-0.1 min, 15% (B) 0.1-2.5 min for Ex. 1 and 1% (B) 0-0.1 min, 40% (B) 0.1-2.5 min for Ex. 2, Ex. 3, Ex. 4, Ex. 5 and Ex. 6. The detection and quantification was performed by mass spectrometry, with electrospray interface in positive mode and selective fragmentation of analytes (4000 Q Trap mass spectrometer, AB Sciex).
PK parameters were calculated by WinNonLin™ software version 5.3 (Pharsight- A Certara™ Company, Moutain View, CA 94041 USA) using a one-compartmental model analysis. PK parameters were determined by least-square fitting of the model to the experimental data.

[3] = Plasma protein binding (ultrafiltration); type: in vitro ADME, human
Description: 495 µL aliquots of human plasma (Basler Blutspendedienst) as well as 495 µL aliquots of PBS were placed in individual deepwells of a polypropylene plate (Greiner) and spiked each with 5 µL of 1 mM solutions of peptides in 90% DMSO. After shaking the plate for 2 min at 600 rpm 150 µL aliquots of the plasma/peptide mixtures were transferred in triplicates to the polypropylene filter plate (10 kDa, Millipore) whereas 150 µL aliquots of the PBS/peptide mixtures were transferred either to the individual wells of the filter plate (filtered controls) or directly into the individual wells of the receiving plate (Greiner) (non-filtered controls). The plate sandwich consisting of filter and receiving plate was incubated for 1 h at 37°C and subsequently centrifuged at 3220 g for 2h at 15 °C. The filtrates in the receiving plate were analysed by LC/MS as follows: Column: Waters, XBridge C18, mobile phases: (A) water + 0.1% formic acid and (B) acetonitrile/water, 95/5 (v/v) + 0.1% formic acid, gradient: 5%-100% (B) in 1.8 min, electrospray ionization, MRM detection (triple quadrupole). The peak areas were determined and triplicate values are averaged. The binding is expressed in percent of the filtered and non-filtered controls by 100-(100x T1h/Tctr). Finally the average of these values is calculated.

| SMILES | Plasma stability human pl. T1/2 ([1]; human plasma, 37° C, last time point 1440 min) [h] | level at 4 h ([2]; male, CD-1, in vivo, iv, mouse plasma, i.v. route, Time 4 h, read-out: Calc. Conc.) [ng/mL] | Plasma stability human pl. T1/2 [1] [h] | Plasma stability human pl. cpd left at 1440 min [1] [%] | Plasma protein binding [3] [%] | Calc. Conc. ([2]; mouse plasma, i.v. route, Time 4 h) [ng/mL] | AUC0-∞ ([2]; iv) [ng·h/mL] | CL ([2]; iv) [mL/min/kg] | Cmax ([2]; iv) [ng/mL] | Half-life ([2]; iv) [h] | Vdis ([2]; iv) [L/kg] |
| --- | --- | --- | --- | --- | --- | --- | --- | --- | --- | --- | --- |
| COc1ccc(C[C@@H]2NC(=O)[C@H](Cc3c[nH]cn3)NC(=O)[C@H](Cc3ccc(O)cc3)NC(=O)[C@@H]3CCCN3C(=O)[C@H]3CCCN3C(=O)[C@H](CCCCNC(C)C)NC(=O)[C@H](CCC(N)=O)NC(=O)[C@H](Cc3ccc(O)cc3)NC(=O)[C@@H]3CSSC[C@H](NC2=O)C(=O)N[C@@H](CO)C(=O)N[C@@H](C)C(=O)N[C@H](Cc2ccc(OC)cc2)C(=O)N[C@@H](CCCNC(C)C)C(=O)N[C@@H](CCCNC(=N)N)C(=O)N[C@@H](Cc2ccc(O)cc2)C(=O)N3)cc1 [Ex. 6, cyclo(-Tyr^1-His^2-Tyr(Me)^3-Cys^4-Ser^5-Ala^6-^DTyr(Me)^7-Orn(iPr)^8-Arg^9-Tyr^10-Cys^11-Tyr^12-Gln^13-Lys(iPr)^14-^DPro^15-Pro^16-), disulfide bond between Cys^4 and Cys^11] (cyclo(YHY(Me)CSA[dY](Me)[Orn(iPr)]RYCYQ[Lys(iPr)][dP]P); disulfide 4-11) | 24 | 7 |  |  |  |  |  |  |  |  |  |
| CC(C)NCCCC[C@@H]1NC(=O)[C@H](CCC(N)=O)NC(=O)[C@H](Cc2ccc(O)cc2)NC(=O)[C@@H]2CSSC[C@H](NC(=O)[C@H](Cc3ccc(O)cc3)NC(=O)[C@H](Cc3c[nH]cn3)NC(=O)[C@H](Cc3ccc(O)cc3)NC(=O)[C@@H]3CCCN3C(=O)[C@H]3CCCN3C1=O)C(=O)N[C@@H](CO)C(=O)N[C@@H](C)C(=O)N1CCC[C@@H]1C(=O)N[C@@H](CCCNC(C)C)C(=O)N[C@@H](CCCNC(=N)N)C(=O)N[C@@H](Cc1ccc(O)cc1)C(=O)N2 [Ex. 1, cyclo(-Tyr^1-His^2-Tyr^3-Cys^4-Ser^5-Ala^6-^DPro^7-Orn(iPr)^8-Arg^9-Tyr^10-Cys^11-Tyr^12-Gln^13-Lys(iPr)^14-^DPro^15-Pro^16-), disulfide bond between Cys^4 and Cys^11] (cyclo(YHYCSA[dP][Orn(iPr)]RYCYQ[Lys(iPr)][dP]P); disulfide 4-11) |  |  | 24 | 77 | 30 | 7 | 1151 | 14.5 | 1829 | 0.4 | 0.547 |
| COc1ccc(C[C@@H]2NC(=O)[C@H](Cc3c[nH]cn3)NC(=O)[C@H](Cc3ccc(O)cc3)NC(=O)[C@@H]3CCCN3C(=O)[C@H]3CCCN3C(=O)[C@H](CCCCNC(C)C)NC(=O)[C@H](CCC(N)=O)NC(=O)[C@H](Cc3ccc(O)cc3)NC(=O)[C@@H]3CSSC[C@H](NC2=O)C(=O)N[C@@H](CO)C(=O)N[C@@H](C)C(=O)N2CCC[C@@H]2C(=O)N[C@@H](CCCNC(C)C)C(=O)N[C@@H](CCCNC(=N)N)C(=O)N[C@@H](Cc2ccc(O)cc2)C(=O)N3)cc1 [Ex. 2, cyclo(-Tyr^1-His^2-Tyr(Me)^3-Cys^4-Ser^5-Ala^6-^DPro^7-Orn(iPr)^8-Arg^9-Tyr^10-Cys^11-Tyr^12-Gln^13-Lys(iPr)^14-^DPro^15-Pro^16-), disulfide bond between Cys^4 and Cys^11] (cyclo(YHY(Me)CSA[dP][Orn(iPr)]RYCYQ[Lys(iPr)][dP]P); disulfide 4-11) |  |  | 24 | 100 | 48 |  | 1518 | 11 | 1575 | 0.7 | 0.635 |
| COc1ccc(C[C@H]2NC(=O)[C@H](C)NC(=O)[C@H](CO)NC(=O)[C@@H]3CSSC[C@H](NC(=O)[C@H](Cc4ccc(O)cc4)NC(=O)[C@H](CCCNC(=N)N)NC(=O)[C@H](CCCNC(C)C)NC2=O)C(=O)N[C@@H](Cc2ccc(O)cc2)C(=O)N[C@@H](CCC(N)=O)C(=O)N[C@@H](CCCCNC(C)C)C(=O)N2CCC[C@@H]2C(=O)N2CCC[C@H]2C(=O)N[C@@H](Cc2ccc(O)cc2)C(=O)N[C@@H](Cc2c[nH]cn2)C(=O)N[C@@H](C)C(=O)N3)cc1 [Ex. 4, cyclo(-Tyr^1-His^2-Ala^3-Cys^4-Ser^5-Ala^6-^DTyr(Me)^7-Orn(iPr)^8-Arg^9-Tyr^10-Cys^11-Tyr^12-Gln^13-Lys(iPr)^14-^DPro^15-Pro^16-), disulfide bond between Cys^4 and Cys^11] (cyclo(YHACSA[dY](Me)[Orn(iPr)]RYCYQ[Lys(iPr)][dP]P); disulfide 4-11) |  |  | 24 | 94 | 56 |  | 1345 | 12.4 | 1615 | 0.6 | 0.607 |
